Source: US11236380B2, “Methods for predicting kinase inhibitor resistance” (Research Development Foundation, priority 2017, dated 2022)

What was measured:
[1] = test system: ABL kinase error-prone mutant library; assay: ABL error-prone library screening by FACS in presence of inhibitor; assay type: cell-based, human; conditions: inhibitor-treated cultures (25 μM)
Description: 5×10^7 cells were washed with TBS+BSA then stained with anti-His6-FITC and anti-pY-PE for 30 minutes at 4° C. Cells were washed three times to remove unbound antibody. Wild-type ABL with and without inhibitor was used to determine the location of the sorting gates. PE+/FITC+ cells were sorted and re-sorted, then transferred to SD-UT medium for growth at 30° C. until dense, 1-2 days depending on number of cells collected (FIG. 1B).

[2] = test system: BTK (217-655) error-prone mutant library; assay: BTK error-prone library screening by FACS in presence of inhibitor; assay type: cell-based, human
Description: A12 polymerase, an error-prone variant of KOD polymerase, was used for amplification to generate a pool of mutants. Vector was prepared by digestion with XhoI and XbaI. PCR product and digested vector were gel extracted and drop dialyzed in ddH2O on VSWP membranes for one hour. […] Library size was estimated by colony counts from dilution series of transformed cells plated on SD-UT agar plus 100 μg/mL G418. Sanger sequencing was carried out on 15 randomly selected clones, as well as high throughput sequencing (described below) on an aliquot of the entire sample.
3×10^8 cells were washed with TBS+BSA for each library and then stained with anti-His6-FITC and anti-pY-APC for 30 minutes at 4° C. Cells were washed three times to remove unbound antibody.

## Cc1ccc(C(=O)Nc2ccc(CN3CCN(C)CC3)c(C(F)(F)F)c2)cc1C#Cc1cnc2cccnn12 [Ponatinib]
[1]; pre-sort 4 pool
  fraction of PE-positive cells: 57.9%
[1]; unsorted pool
  fraction of PE-positive cells: 0.31%

## CC#CC(=O)N1CCC[C@H]1c1nc(-c2ccc(C(=O)Nc3ccccn3)cc2)c2c(N)nccn12 [Acalabrutinib]
[2]; 1000 μM Acalabrutinib treated cultures, pre-sort round 3 pool
  fraction of APC-positive cells: 23.8%
[2]; 1000 μM Acalabrutinib treated cultures, unsorted pool
  fraction of APC-positive cells: 1.63%

## C=CC(=O)N1CCC[C@@H](n2nc(-c3ccc(Oc4ccccc4)cc3)c3c(N)ncnc32)C1 [Ibrutinib]
[2]; 400 nM Ibrutinib-treated cultures, pre-sort round 3
  fraction of APC-positive cells: 40.60%
[2]; 400 nM Ibrutinib-treated cultures, unsorted pool
  fraction of APC-positive cells: 0.7%
